Measured values as given in patent US20240208928A1, “NOVEL COMPOUNDS” (Hoffmann-La Roche Inc., priority 2021, published 2024).

Columns and labels:
Type in all cases: cell-based
hERG channels = target: T1, hERG channels (Homo sapiens, UniProt Q12809); test: hERG screening assay (automated patch clamp); settings: CHO crelox hERG cell line, whole-cell patch clamp SynchroPatch 384, 35-37° C.
T1 construct: cryopreserved at Evotec (Germany) ATCC PTA-6812; host or cells: CHO (Chinese hamster) crelox hERG cell line
Source text: hERG Screening Assay The CHO crelox hERG cell line (ATCC reference Nr. PTA-6812, female Chinese hamster cells) was generated and validated at Roche. Ready-to-use frozen instant CHO-hERG cells were cryopreserved at Evotec (Germany) and used directly in the experiments. The extracellular solution contains (in mM): NaCl 150; KCl 4; CaCl2 1; MgCl2 1; HEPES 10; pH 7.2-7.4 with NaOH, osmolarity 290-330 mOsm. The internal solution contains (in mM): KCl, 10; KF, 100; NaCl, 10; HEPES, 10; EGTA, 20; pH=7.0-7.4 with KOH, osmolarity 260-300 mOsm. The effects of a compound on hERG K+-currents parameters will be evaluated at 2 concentrations in at least 4 cells. The hERG test is performed using automated patch clamp system SynchroPatch® 384 (Nanion Technologies GmbH, Germany). K+ currents are measured with the patch-voltage-clamp technique in the whole-cell configuration at 35-37° C. Cells were held at a resting voltage of −80 mV and they were stimulated by a voltage pattern shown in FIG. 1 to activate hERG channels and conduct outward IKhERG current, at a stimulation frequency of 0.1 Hz (6 bpm) The amplitudes of IKhERG were recorded in each concentration of drug and they were compared to the vehicle control values (taken as 100%) to define fractional blocks. The concentration-response data were fitted with the following relationship: where C is the concentration, • IC50 is the concentration producing 50% block • h is the Hill coefficient. Concentration-response curves were fitted by non-linear regression analysis using EworkBook suite (ID Business Solutions Ltd, UK). Data fit was done with the 4 Parameter Logistic Model (fit=(A+(B/(1+((x/C)^D)))), where A=0 and B=100).

NLRP3 [1] = target: T2, NLRP3 (Homo sapiens, UniProt Q96P20); test: THP-1 cells pyroptosis assay; parameters: Seed THP-1 cells (25,000 cells/well) containing 1.0 μg/ml LPS; host or cells: THP-1 cells, LPS-primed, nigericin-stimulated; settings: 1.0 μg/ml LPS, nigericin 5 μM, resazurin readout
Method: The cells were routinely passaged and grown to confluency (˜10^6 cells/ml). On the day of the experiment, THP-1 cells were harvested and resuspended into RPMI medium (without FBS). […] To this diluted cell solution was added LPS (Sigma #L4524) to give a 1 μg/ml Final Assay Concentration (FAC). 40 μl of the final preparation was aliquoted into each well of a 96-well plate. The plate thus prepared was used for compound screening.
The following method step-by-step assay was followed for compound screening. • 1. […] Incubate for 3 hrs at 37° C., 5% CO2 • 4. Add 5 μl nigericin (Sigma #N7143) (FAC 5 μM) to all wells • 5. Incubate for 1 hr at 37° C., 5% CO2 • 6. At the end of the incubation period, spin plates at 300×g for 3 mins and remove supernatant • 7. Then add 50 μl of resazurin (Sigma #R7017) (FAC 100 μM resazurin in RPMI medium without FBS) and incubate plates for a further 1-2 hrs at 37° C. and 5% CO2 • 8. […] IC50 data is fitted to a non-linear regression equation (log inhibitor vs response-variable slope 4-parameters)

NLRP3 [2] = target: T2, NLRP3; test: Human whole blood IL-1β release assay; parameters: Human whole blood in Li-heparin tubes was obtained from healthy donors; from tissue; host or cells: human whole blood from healthy donors, LPS-primed, nigericin-stimulated; settings: 1 μg/ml LPS, nigericin 10 μM, IL-1β by AlphaLisa
Method: For systemic delivery, the ability to inhibit NLRP3 when the compounds are present within the bloodstream is of great importance. For this reason, the NLRP3 inhibitory activity of a number of compounds in human whole blood was investigated in accordance with the following protocol.
Human whole blood in Li-heparin tubes was obtained from healthy donors from a volunteer donor panel. • 1. […] Incubate for 3 hrs at 37° C., 5% CO2 • 4. Add 10 μl nigericin (Sigma #N7143) (10 μM FAC) to all wells • 5. Incubate for 1 hr at 37° C., 5% CO2 • 6. At the end of the incubation period, spin plates at 300×g for 5 mins to pellet cells and remove 20 μl of supernatant and add to 96-well v-bottom plates for IL-1β analysis (note: these plates containing the supernatants can be stored at −80° C. to be analysed at a later date) • 7. IL-1β was measured according to the manufacturer protocol (Perkin Elmer-AlphaLisa IL-1 Kit AL220F-5000) • 8. IC50 data is fitted to a non-linear regression equation (log inhibitor vs response-variable slope 4-parameters)

T2 sequence (Q96P20 whole entry): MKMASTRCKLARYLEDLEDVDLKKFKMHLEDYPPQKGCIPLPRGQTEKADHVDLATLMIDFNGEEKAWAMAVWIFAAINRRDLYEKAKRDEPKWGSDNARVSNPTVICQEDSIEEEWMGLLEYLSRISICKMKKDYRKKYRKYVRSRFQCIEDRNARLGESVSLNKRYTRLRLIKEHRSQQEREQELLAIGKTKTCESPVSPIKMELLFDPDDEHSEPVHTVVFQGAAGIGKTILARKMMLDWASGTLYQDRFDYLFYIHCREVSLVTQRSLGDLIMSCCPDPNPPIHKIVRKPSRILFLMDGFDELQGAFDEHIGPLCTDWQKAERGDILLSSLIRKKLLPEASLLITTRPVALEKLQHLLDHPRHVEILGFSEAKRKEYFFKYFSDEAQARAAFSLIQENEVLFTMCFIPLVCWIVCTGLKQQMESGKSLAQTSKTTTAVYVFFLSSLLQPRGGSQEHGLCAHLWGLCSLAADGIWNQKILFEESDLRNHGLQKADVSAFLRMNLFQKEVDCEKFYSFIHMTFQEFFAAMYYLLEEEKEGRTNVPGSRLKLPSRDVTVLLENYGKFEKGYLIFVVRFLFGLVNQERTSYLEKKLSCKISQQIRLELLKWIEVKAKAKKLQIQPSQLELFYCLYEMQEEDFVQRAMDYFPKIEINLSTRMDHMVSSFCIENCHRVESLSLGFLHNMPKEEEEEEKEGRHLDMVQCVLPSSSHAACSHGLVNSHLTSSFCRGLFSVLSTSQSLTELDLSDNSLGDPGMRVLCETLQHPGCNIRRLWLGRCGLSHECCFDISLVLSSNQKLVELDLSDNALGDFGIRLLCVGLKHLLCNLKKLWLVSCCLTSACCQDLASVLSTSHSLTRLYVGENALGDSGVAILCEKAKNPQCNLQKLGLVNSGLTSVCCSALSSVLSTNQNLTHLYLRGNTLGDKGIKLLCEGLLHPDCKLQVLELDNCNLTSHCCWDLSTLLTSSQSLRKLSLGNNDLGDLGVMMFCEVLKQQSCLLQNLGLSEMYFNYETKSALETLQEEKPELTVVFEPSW
T1 sequence (Q12809 whole entry): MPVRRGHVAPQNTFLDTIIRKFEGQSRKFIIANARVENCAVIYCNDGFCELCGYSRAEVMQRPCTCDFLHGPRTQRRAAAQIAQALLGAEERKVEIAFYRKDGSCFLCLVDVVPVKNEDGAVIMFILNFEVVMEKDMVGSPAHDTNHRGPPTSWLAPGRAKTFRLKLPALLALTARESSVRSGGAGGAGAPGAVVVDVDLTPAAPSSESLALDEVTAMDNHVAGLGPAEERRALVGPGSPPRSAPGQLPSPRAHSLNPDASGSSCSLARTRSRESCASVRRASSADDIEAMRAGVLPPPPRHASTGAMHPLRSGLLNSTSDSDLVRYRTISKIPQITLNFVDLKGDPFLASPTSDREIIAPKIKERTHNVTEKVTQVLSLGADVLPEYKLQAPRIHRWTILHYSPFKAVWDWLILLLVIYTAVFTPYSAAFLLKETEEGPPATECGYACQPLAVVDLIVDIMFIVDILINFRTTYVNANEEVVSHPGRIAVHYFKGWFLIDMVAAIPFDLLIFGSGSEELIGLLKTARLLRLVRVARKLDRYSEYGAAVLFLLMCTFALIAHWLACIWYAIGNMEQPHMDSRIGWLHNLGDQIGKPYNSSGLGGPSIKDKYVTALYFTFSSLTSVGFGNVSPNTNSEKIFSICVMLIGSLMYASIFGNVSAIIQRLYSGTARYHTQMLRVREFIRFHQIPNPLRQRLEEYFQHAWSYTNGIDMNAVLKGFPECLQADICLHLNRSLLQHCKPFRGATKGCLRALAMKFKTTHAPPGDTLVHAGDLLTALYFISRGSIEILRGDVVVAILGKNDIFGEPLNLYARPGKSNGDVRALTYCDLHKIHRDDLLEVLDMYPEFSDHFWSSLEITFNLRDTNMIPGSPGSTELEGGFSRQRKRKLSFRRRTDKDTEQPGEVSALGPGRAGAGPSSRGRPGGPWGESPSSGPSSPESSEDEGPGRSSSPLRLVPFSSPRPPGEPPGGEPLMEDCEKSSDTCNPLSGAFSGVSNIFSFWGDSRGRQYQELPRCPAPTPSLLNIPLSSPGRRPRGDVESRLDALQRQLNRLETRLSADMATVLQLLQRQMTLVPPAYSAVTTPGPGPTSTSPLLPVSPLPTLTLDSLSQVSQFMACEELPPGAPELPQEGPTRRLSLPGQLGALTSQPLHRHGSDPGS

Compound | IC50 (hERG channels) | IC50 (NLRP3 [1]) | IC50 (NLRP3 [2])
CCN1CCC[C@@H](Nc2nnc(-c3ccc(OC(F)(F)F)cc3O)n(C)c2=O)C1 [Example 27, 6-[[(3R)-1-Ethyl-3-piperidyl]amino]-3-[2-hydroxy-4-(trifluoromethoxy)phenyl]-4-methyl-1,2,4-triazin-5-one] | > 20000 nM | 12 nM | 14 nM
CCN1CCC[C@@H](Nc2nnc(-c3ccc(C(F)(F)F)cc3O)n(C)c2=O)C1 [Example 19, 6-[[(3R)-1-Ethyl-3-piperidyl]amino]-3-[2-hydroxy-4-(trifluoromethyl)phenyl]-4-methyl-1,2,4-triazin-5-one;2,2,2-trifluoroacetic Acid] | > 20000 nM | 10 nM | 9.5 nM
CCN1CCC[C@@H](Nc2nnc(-c3ccc(Cl)cc3O)n(C)c2=O)C1 [Example 33, 3-(4-Chloro-2-hydroxy-phenyl)-6-[[(3R)-1-ethyl-3-piperidyl]amino]-4-methyl-1,2,4-triazin-5-one] | > 20000 nM | – | –
CCN1CCC[C@@H](Nc2nnc(-c3ccc4c(c3O)CCO4)n(C)c2=O)C1 [Example 2, 6-[[(3R)-1-Ethyl-3-piperidyl]amino]-3-(4-hydroxy-2,3-dihydrobenzofuran-5-yl)-4-methyl-1,2,4-triazin-5-one] | > 20000 nM | – | –
CCN1CCC[C@@H](Nc2nnc(-c3c(C)cc(C(F)(F)F)cc3O)n(C)c2=O)C1 [Example 28, 6-[[(3R)-1-Ethyl-3-piperidyl]amino]-3-[2-hydroxy-6-methyl-4-(trifluoromethyl)phenyl]-4-methyl-1,2,4-triazin-5-one] | > 20000 nM | 13 nM | 31 nM
Cn1c(-c2ccc(C(F)(F)F)cc2O)nnc(N[C@@H]2CCCN(C3CC3)C2)c1=O [Example 10, (R)-6-((1-Cyclopropylpiperidin-3-yl)amino)-3-(2-hydroxy-4-(trifluoromethyl)phenyl)-4-methyl-1,2,4-triazin-5(4H)-one] | > 20000 nM | 39 nM | 170 nM
CCN1CCC[C@@H](Nc2nnc(-c3ccc(F)cc3O)n(C)c2=O)C1 [Example 21, 6-[[(3R)-1-Ethyl-3-piperidyl]amino]-3-(4-fluoro-2-hydroxy-phenyl)-4-methyl-1,2,4-triazin-5-one] | > 20000 nM | 58 nM | 28 nM
CCN1CCCC(Nc2nnc(-c3ccc(C(F)(F)F)cc3O)n(C)c2=O)C1 (stereo not shown) [Example 1, 6-((1-ethylpiperidin-3-yl)amino)-3-(2-hydroxy-4-(trifluoromethyl)phenyl)-4-methyl-1,2,4-triazin-5(4H)-one] | > 20000 nM | 44 nM | 35 nM
Cn1c(-c2ccc(C(F)(F)F)cc2O)nnc(N[C@@H]2CCCN(CC3CC3)C2)c1=O [Example 5, (R)-6-((1-(Cyclopropylmethyl)piperidin-3-yl)amino)-3-(2-hydroxy-4-(trifluoromethyl)phenyl)-4-methyl-1,2,4-triazin-5(4H)-one;2,2,2-trifluoroacetic Acid] | – | 88 nM | 92 nM
CCN1CCC[C@@H](Nc2nnc(-c3ccc(OC(F)F)cc3O)n(C)c2=O)C1 [Example 23, 3-[4-(Difluoromethoxy)-2-hydroxy-phenyl]-6-[[(3R)-1-ethyl-3-piperidyl]amino]-4-methyl-1,2,4-triazin-5-one; Formic Acid] | – | 8.1 nM | 6.5 nM
CCN1CCCC(Nc2cc(C)c(-c3ccc(C(F)(F)F)cc3O)nn2)C1 (stereo not shown) [RE-A, 2-[6-[(1-ethyl-3-piperidyl)amino]-4-methyl-pyridazin-3-yl]-5-(trifluoromethyl)phenol, reference compound] | 1200 nM | – | –
